Laboratory results as given in ChEMBL document CHEMBL1127639, “Structural features important for sigma 1 receptor binding” (J Med Chem, 1994).

Test: Binding affinity against [3H]-3-PPP labelled sigma sites

CN(CCc1ccccc1)CCN1CCCC1
Ki: 7.4 nM
